# Results as given in patent US9701672B2, “Dihydropyridinone MGAT2 inhibitors for use in the treatment of metabolic disorders” (BRISTOL-MYERS SQUIBB COMPANY, priority 2014, dated 2017).
# Biological target: human MGAT-2 (Homo sapiens (Human), UniProt Q3SYC2)
# Assay: MGAT LCMS assay (h-MGAT LCMS)
# Type: biochemical
# Conditions: human MGAT2 membranes expressed in Sf9 cells; 100 μM 2-oleoylglycerol, 15 μM oleoyl-coenzyme A
# Method: The MGAT enzyme reactions were performed in Corning FALCON® 96-well polypropylene plates, in a total volume of 60 μL of 50 mM potassium phosphate buffer pH 7.4, containing a final concentration of 100 μM 2-oleoylglycerol, 15 μM oleoyl-coenzyme A and 0.0013 μg/μL human or mouse MGAT-2 or 0.0026 μg/μL rat recombinant MGAT-2 membranes expressed in Sf9 cells. Assay plates were run through a fully automated robotics system and shaken for 5 seconds every minute for a total 10 minutes. The reactions were then quenched with 120 μL of ice cold methanol containing 1 μg/mL 1,2-distearoyl-rac-glycerol as the internal standard. Plates were shaken for 2 minutes and spun down to remove protein precipitation. After the spin, samples were transferred to LC/MS compatible PCR plates. For LC/MS analysis, a ThermoFisher Surveyor pump, utilizing a Waters […]® C8, 50×2.1 mm column, was used for the chromatography of enzyme products. The buffer system consists of 0.1% formic acid in water with a mobile phase consisting 0.1% formic acid in methanol. The shallow gradient is 90-100% mobile phase in 0.2 min with a total run time of 2.3 min. The first 0.5 minutes of each injection was diverted to waste to eliminate the presence of phosphate buffer in the enzymatic reaction. The column was run at 0.6 mL/min and a temperature of 65° C. Mass spectrometry analysis of the samples was performed on a ThermoFisher Quantum Triple quad utilizing APCI (+) as the mode of ionization. Data was acquired in Single Ion Monitoring (SIM) mode analyzing Diolein=m/z 603.6 (PRODUCT) and 1,2-distearoyl-rac-glycerol (IS)=m/z 607.6. The ratio of Diolein to internal standard (Peak Area Ratio) is utilized to calculate IC50 values.
# “NT” denotes “Not tested”.
# human MGAT-2, sequence (Q3SYC2 whole entry): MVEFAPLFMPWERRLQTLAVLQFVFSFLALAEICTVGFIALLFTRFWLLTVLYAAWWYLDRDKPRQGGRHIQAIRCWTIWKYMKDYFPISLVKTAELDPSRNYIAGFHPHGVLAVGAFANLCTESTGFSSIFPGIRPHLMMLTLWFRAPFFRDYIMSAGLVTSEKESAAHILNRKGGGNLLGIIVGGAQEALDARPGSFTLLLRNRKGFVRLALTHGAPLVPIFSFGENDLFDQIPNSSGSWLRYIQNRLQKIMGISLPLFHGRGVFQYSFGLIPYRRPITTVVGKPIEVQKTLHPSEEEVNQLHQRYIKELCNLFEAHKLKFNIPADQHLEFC
row,Structure (SMILES),IC50
1,CCn1ccc(C2=C(c3nnn[nH]3)C(=O)N[C@@](c3ccc(CCCCC(F)(F)F)cc3F)(C(F)(F)F)C2)n1 [Example 49],4.5 nM
2,O=C1N[C@@](c2ccc(OCCCC(F)(F)F)cc2)(C(F)(F)F)CC(c2ccn(C3CCC3)n2)=C1c1nnn[nH]1 [Example 20],74.7 nM
3,CCn1ccc(C2=C(c3nnn[nH]3)C(=O)N[C@@](c3ccc(OCCCCCC(F)(F)F)cc3)(C(F)(F)F)C2)n1 [Example 29],52.1 nM
4,CC(C)n1ccc(C2=C(c3nnn[nH]3)C(=O)N[C@@](c3ccc(OCCCC(F)(F)F)cc3F)(C(F)(F)F)C2)n1 [Example 39],16.6 nM
5,CC(C)n1ccc(C2=C(c3nnn[nH]3)C(=O)N[C@@](c3ccc(CCCCC(F)(F)F)cc3)(C(F)(F)F)C2)n1 [Example 23],2.1 nM
6,CN(C)c1cnc(C2=C(c3nnn[nH]3)C(=O)N[C@@](c3ccc(OCCCCC(F)(F)F)cc3)(C(F)(F)F)C2)s1 [Example 45],3.5 nM
7,O=C1N[C@@](c2ccc(OCCCCCC(F)(F)F)cc2F)(C(F)(F)F)CC(c2ccn(C3CC3)n2)=C1c1nnn[nH]1 [Example 16],34 nM
8,O=C1N[C@@](c2ccc(OCCCC(F)(F)F)cc2F)(C(F)(F)F)CC(c2ccn(C3CCC3)n2)=C1c1nnn[nH]1 [Example 40],6.7 nM
9,O=C1N[C@@](c2ccc(OCCCCC(F)(F)F)cc2)(C(F)(F)F)CC(c2ccc(C3CC3)s2)=C1c1nnn[nH]1 [Example 44],15.2 nM
10,CN(C)c1cnc(C2=C(c3nnn[nH]3)C(=O)N[C@@](c3ccc(OCCCC(F)(F)F)cc3)(C(F)(F)F)C2)s1 [Example 35],11.5 nM
11,CC(C)Cn1ccc(C2=C(c3nnn[nH]3)C(=O)N[C@@](c3ccc(OCCCC(F)(F)F)cc3F)(C(F)(F)F)C2)n1 [Example 51],97.4 nM
12,Cc1cnn(C2=C(C#N)C(=O)N[C@@](c3ccc(OCCCC(F)(F)F)cc3)(C(F)(F)F)C2)c1 [Example 77],522 nM
13,O=C1N[C@@](c2ccc(OCCCC(F)(F)F)cc2)(C(F)(F)F)CC(c2cc3ccccc3s2)=C1c1nnn[nH]1 [Example 7],9 nM
14,O=C1N[C@@](c2ccc(CCCCC(F)(F)F)cc2)(C(F)(F)F)CC(c2ccn(C3CC3)n2)=C1c1nnn[nH]1 [Example 24],22.9 nM
15,"Cc1ccc(C2=C(C#N)C(=O)N[C@@](c3ccc(OCCCC(F)(F)F)cc3)(C(F)(F)F)C2)s1 [Example 67, (S)-4-(5-Methylthiophen-2-yl)-2-oxo-6-(4-(4,4,4-trifluorobutoxy)phenyl)-6-(trifluoromethyl)-1,2,5,6-tetrahydropyridine-3-carbonitrile]",97.6 nM
16,Cc1cnc(C2=C(c3nnn[nH]3)C(=O)N[C@@](c3ccc(OCCCC(F)(F)F)cc3)(C(F)(F)F)C2)nc1 [Example 38],34.3 nM
17,CC(C)(C)n1ccc(C2=C(c3nnn[nH]3)C(=O)N[C@@](c3ccc(OCCCCCC(F)(F)F)cc3)(C(F)(F)F)C2)n1 [Example 27],185 nM
18,CCc1ccc(C2=C(c3nnn[nH]3)C(=O)N[C@@](c3ccc(OCCCC(F)(F)F)cc3)(C(F)(F)F)C2)s1 [Example 9],32 nM
19,CC(C)n1cc(C2=C(c3nnn[nH]3)C(=O)N[C@@](c3ccc(OCCCCCC(F)(F)F)cc3)(C(F)(F)F)C2)c2ccccc21 [Example 34],86.9 nM
20,O=C1N[C@@](c2ccc(CCCCC(F)(F)F)cc2F)(C(F)(F)F)CC(c2ccn(C3CCC3)n2)=C1c1nnn[nH]1 [Example 47],2.7 nM
21,O=C1N[C@@](c2ccc(OCCCC(F)(F)F)cc2)(C(F)(F)F)CC(c2ccn(CC3CCC3)n2)=C1c1nnn[nH]1 [Example 21],135 nM
22,O=C1N[C@@](c2ccc(OCCCC(F)(F)F)cc2Cl)(C(F)(F)F)CC(c2ccc(C3CC3)s2)=C1c1nnn[nH]1 [Example 56],0.2 nM
23,CCc1cnc(C2=C(c3nnn[nH]3)C(=O)N[C@@](c3ccc(OCCCC(F)(F)F)cc3F)(C(F)(F)F)C2)s1 [Example 62],2.1 nM
